# Measured values published in PubChem BioAssay AID248 (DTP/NCI, 2004).
# Inconclusive results and toxic doses are left out.
# Test system: L1210 leukemia ip in BDF1 mice, survival T/C
# Assay: NCI In Vivo Anticancer Drug Screen. Data for tumor model L1210 Leukemia (intraperitoneal) in B6D2F1 (BDF1) mice
# Conditions: endpoint: mean survival time, higher = longer survival
# How it was run: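 Survival endpoint. Drug-treated group vs vehicle group, expressed as T divided by C. Tumor passaged by transplantation.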
# [1] = dose: 100.0 mg/kg/injection, schedule: Q01DX001 (ip), vehicle: saline
# [2] = dose: 200.0 mg/kg/injection, schedule: Q01DX001 (ip), vehicle: saline
# [3] = dose: 400.0 mg/kg/injection, schedule: Q01DX001 (ip), vehicle: saline
# [4] = dose: 400.0 mg/kg/injection, schedule: Q04DX003 (ip), vehicle: saline
# [5] = dose: 100.0 mg/kg/injection, schedule: Q04DX002 (ip), vehicle: Klucel (hydroxypropylcellulose) (HPC)
# [6] = dose: 200.0 mg/kg/injection, schedule: Q04DX002 (ip), vehicle: Klucel (hydroxypropylcellulose) (HPC)
# [7] = dose: 400.0 mg/kg/injection, schedule: Q04DX002 (ip), vehicle: Klucel (hydroxypropylcellulose) (HPC)
# [8] = dose: 100.0 mg/kg/injection, schedule: Q01DX009 (ip), vehicle: Klucel (hydroxypropylcellulose) (HPC)
# [9] = dose: 200.0 mg/kg/injection, schedule: Q01DX009 (ip), vehicle: Klucel (hydroxypropylcellulose) (HPC)
compound,measurement,setting,value
N#Cc1nc(C#N)c(C#N)nc1C#N,T/C,"dose: 6.25 mg/kg/injection, schedule: Q01DX009 (ip), vehicle: Klucel (hydroxypropylcellulose) (HPC)",105 % of control
same,T/C,"dose: 12.5 mg/kg/injection, schedule: Q01DX009 (ip), vehicle: Klucel (hydroxypropylcellulose) (HPC)",100 % of control
same,T/C,"dose: 25.0 mg/kg/injection, schedule: Q01DX009 (ip), vehicle: Klucel (hydroxypropylcellulose) (HPC)",94 % of control
same,T/C,"dose: 50.0 mg/kg/injection, schedule: Q01DX009 (ip), vehicle: Klucel (hydroxypropylcellulose) (HPC)",97 % of control
CCCCCCOc1ccc(CC(N)C(=O)O)cc1N(CCCl)CCCl (stereo not drawn),T/C,"dose: 2.5 mg/kg/injection, schedule: Q01DX009 (ip), vehicle: carboxymethylcellulose (CMC)",119 % of control
same,T/C,"dose: 4.4 mg/kg/injection, schedule: Q01DX001 (ip), vehicle: carboxymethylcellulose (CMC)",109 % of control
same,T/C,"dose: 6.6 mg/kg/injection, schedule: Q01DX001 (ip), vehicle: carboxymethylcellulose (CMC)",115 % of control
same,T/C,"dose: 8.5 mg/kg/injection, schedule: Q01DX001 (ip), vehicle: carboxymethylcellulose (CMC)",117 % of control
same,T/C,"dose: 10.0 mg/kg/injection, schedule: Q01DX001 (ip), vehicle: carboxymethylcellulose (CMC)",110 % of control
same,T/C,"dose: 13.0 mg/kg/injection, schedule: Q01DX001 (ip), vehicle: carboxymethylcellulose (CMC)",117 % of control
same,T/C,"dose: 15.0 mg/kg/injection, schedule: Q01DX001 (ip), vehicle: carboxymethylcellulose (CMC)",116 % of control
same,T/C,"dose: 15.0 mg/kg/injection, schedule: Q01DX009 (ip), vehicle: carboxymethylcellulose (CMC)",152 % of control
same,T/C,"dose: 20.0 mg/kg/injection, schedule: Q01DX001 (ip), vehicle: carboxymethylcellulose (CMC)",122 % of control
same,T/C,"dose: 22.5 mg/kg/injection, schedule: Q01DX009 (ip), vehicle: carboxymethylcellulose (CMC)",113 % of control
same,T/C,"dose: 30.0 mg/kg/injection, schedule: Q01DX001 (ip), vehicle: carboxymethylcellulose (CMC)",122 % of control
CC1(C)S[C@@H]2[C@H](NC(=O)Cc3ccc([N+](=O)[O-])cc3)CN2[C@H]1N=C=O,T/C,[1],93 % of control
same,T/C,[2],91 % of control
same,T/C,[3],98 % of control
OCCc1cccc(O)c1,T/C,"dose: 50.0 mg/kg/injection, schedule: Q01DX001 (ip), vehicle: saline",102 % of control
same,T/C,[1],93 % of control
same,T/C,[2],86 % of control
same,T/C,[3],100 % of control
CC(=O)OCC1OC(n2ccc(NC(=S)Nc3ccn(C4OC(COC(C)=O)C(OC(C)=O)C4OC(C)=O)c(=O)n3)nc2=O)C(OC(C)=O)C1OC(C)=O (stereo not drawn),T/C,[3],100 % of control
same,T/C,[4],105 % of control
same,T/C,"dose: 800.0 mg/kg/injection, schedule: Q01DX001 (ip), vehicle: saline",96 % of control
same,T/C,"dose: 800.0 mg/kg/injection, schedule: Q01DX009 (ip), vehicle: saline",116 % of control
same,T/C,"dose: 800.0 mg/kg/injection, schedule: Q04DX003 (ip), vehicle: saline",98 % of control
same,T/C,"dose: 1600.0 mg/kg/injection, schedule: Q01DX001 (ip), vehicle: saline",96 % of control
same,T/C,"dose: 1600.0 mg/kg/injection, schedule: Q04DX003 (ip), vehicle: saline",100 % of control
N#CC(Sc1ccccc1)c1ccccc1 (stereo not drawn),T/C,[5],119 % of control
same,T/C,[6],97 % of control
same,T/C,[7],86 % of control
CC12CCC3c4ccc(O)c(N)c4CCC3C1CCC2=O (stereo not drawn),T/C,"dose: 100.0 mg/kg/injection, schedule: Q01DX001 (ip), vehicle: Klucel (hydroxypropylcellulose) (HPC)",102 % of control
same,T/C,"dose: 200.0 mg/kg/injection, schedule: Q01DX001 (ip), vehicle: Klucel (hydroxypropylcellulose) (HPC)",102 % of control
same,T/C,"dose: 400.0 mg/kg/injection, schedule: Q01DX001 (ip), vehicle: Klucel (hydroxypropylcellulose) (HPC)",101 % of control
Cc1nc2c(-c3ccccc3)cc(Cl)cc2s1,T/C,"dose: 100.0 mg/kg/injection, schedule: Q04DX003 (ip), vehicle: saline",100 % of control
same,T/C,"dose: 200.0 mg/kg/injection, schedule: Q04DX003 (ip), vehicle: saline",101 % of control
same,T/C,[4],95 % of control
COC(=O)c1ccc([N+](=O)[O-])o1,T/C,"dose: 50.0 mg/kg/injection, schedule: Q04DX002 (ip), vehicle: Klucel (hydroxypropylcellulose) (HPC)",104 % of control
same,T/C,[8],93 % of control
same,T/C,[5],90 % of control
same,T/C,[9],111 % of control
same,T/C,[6],101 % of control
same,T/C,[7],87 % of control
COc1cc([N+](=O)[O-])ccc1NC(=O)Oc1ccc(-c2ccccc2)cc1Cl,T/C,[8],93 % of control
same,T/C,[9],96 % of control
same,T/C,"dose: 400.0 mg/kg/injection, schedule: Q01DX009 (ip), vehicle: Klucel (hydroxypropylcellulose) (HPC)",95 % of control
c1ccc(C[N+]23CCN(CC2)CC3)cc1,T/C,"dose: 12.5 mg/kg/injection, schedule: Q01DX009 (ip), vehicle: saline",119 % of control
same,T/C,"dose: 25.0 mg/kg/injection, schedule: Q01DX009 (ip), vehicle: saline",109 % of control
same,T/C,"dose: 50.0 mg/kg/injection, schedule: Q01DX009 (ip), vehicle: saline",108 % of control
CCOC(=O)CC(N)=O,T/C,"dose: 100.0 mg/kg/injection, schedule: Q04DX002 (ip), vehicle: saline",111 % of control
same,T/C,"dose: 200.0 mg/kg/injection, schedule: Q04DX002 (ip), vehicle: saline",96 % of control
same,T/C,"dose: 400.0 mg/kg/injection, schedule: Q04DX002 (ip), vehicle: saline",104 % of control
